Assay results published in ChEMBL document CHEMBL5346933, “Design and synthesis of novel arylurea derivatives of aryloxy(1-phenylpropyl) alicyclic diamines with antimicrobial activity against multidrug-resistant Gram-positive bacteria” (Eur J Med Chem, 2023).
Converted amounts (≈) assume the structure as drawn. The source made the active and inactive calls. No cut-off for these calls is given here.

Legend:
Klebsiella pneumoniae = test: Antibacterial activity against Klebsiella pneumoniae ATCC 700603 assessed as inhibition of bacterial growth incubated for 18 hrs by broth microdilution method; format: functional
[1] = Cytotoxicity against human BJ cells assessed as reduction in cell viability incubated for 24 hrs by MTT assay; format: toxicity, cell-based
Enterococcus faecalis = test: Antibacterial activity against Enterococcus faecalis ATCC 29212 assessed as inhibition of bacterial growth incubated for 18 hrs by broth microdilution method; format: functional
Enterococcus faecium = test: Antibacterial activity against vancomycin-resistant Enterococcus faecium assessed as inhibition of bacterial growth incubated for 18 hrs by broth microdilution method; format: functional
Streptococcus pneumoniae [2] = test: Antibacterial activity against Streptococcus pneumoniae ATCC 49619 assessed as inhibition of bacterial growth incubated for 18 hrs by broth microdilution method; format: functional
Staphylococcus aureus [3] = test: Antibacterial activity against vancomycin-intermediate Staphylococcus aureus ATCC 700699 assessed as inhibition of bacterial growth incubated for 18 hrs by broth microdilution method; format: functional
Staphylococcus aureus [4] = test: Antibacterial activity against methicillin-susceptible Staphylococcus aureus ATCC 25923 assessed as inhibition of bacterial growth incubated for 18 hrs by broth microdilution method; format: functional
[5] = Induction of hemolysis in horse RBC at 200 uM incubated for 1 hr; format: toxicity, cell-based, Equus caballus, Erythrocyte; conditions: horse red blood cells (erythrocytes), read-out: Activity
[6] = Cytotoxicity against human MRC5 cells assessed as reduction in cell viability incubated for 24 hrs by MTT assay; format: toxicity, cell-based
[7] = system: Staphylococcus epidermidis; test: Antibacterial activity against biofilm producer Staphylococcus epidermidis ATCC 35984 assessed as inhibition of bacterial growth incubated for 18 hrs by broth microdilution method; format: functional
Staphylococcus aureus [8] = test: Antibacterial activity against biofilm producer Staphylococcus aureus RN450 assessed as inhibition of bacterial growth incubated for 18 hrs by broth microdilution method; format: functional
Escherichia coli = test: Antibacterial activity against Escherichia coli ATCC 25922 assessed as inhibition of bacterial growth incubated for 18 hrs by broth microdilution method; format: functional
Staphylococcus aureus [9] = test: Antibacterial activity against methicillin-resistant Staphylococcus aureus clinical strain 19449 assessed as inhibition of bacterial growth incubated for 18 hrs by broth microdilution method; format: functional
Pseudomonas aeruginosa = test: Antibacterial activity against Pseudomonas aeruginosa ATCC 27853 assessed as inhibition of bacterial growth incubated for 18 hrs by broth microdilution method; format: functional
[10] = system: Staphylococcus epidermidis; test: Antibacterial activity against linezolid-resistant Staphylococcus epidermidis NIL 4399/19 assessed as inhibition of bacterial growth incubated for 18 hrs by broth microdilution method; format: functional
[11] = system: Staphylococcus epidermidis; test: Antibacterial activity against methicillin-susceptible Staphylococcus epidermidis ATCC 12228 assessed as inhibition of bacterial growth incubated for 18 hrs by broth microdilution method; format: functional
Streptococcus pneumoniae [12] = test: Antibacterial activity against Oxacillin-resistant Streptococcus pneumoniae O/19/4541 assessed as inhibition of bacterial growth incubated for 18 hrs by broth microdilution method; format: functional

Row | Compound | Activity (Klebsiella pneumoniae) | IC50 at 24 h [1] | MIC (Enterococcus faecalis) | MIC (Enterococcus faecium) | MIC (Streptococcus pneumoniae [2]) | MIC (Staphylococcus aureus [3]) | MIC (Staphylococcus aureus [4]) | hemolysis at 1 h, 200 µM [5] | IC50 at 24 h [6] | MIC [7] | MIC (Staphylococcus aureus [8]) | Activity (Escherichia coli) | MIC (Staphylococcus aureus [9]) | Activity (Pseudomonas aeruginosa) | MIC [10] | MIC [11] | MIC (Streptococcus pneumoniae [12])
1 | O=C(Nc1cccc(Cl)c1)N[C@@H]1CCN(CCC(Oc2ccc(C(F)(F)F)cc2)c2ccccc2)C1 (stereo partly drawn) | inactive | 3.12 µg/mL (≈ 6.03 µM) | 3.12 µg/mL (≈ 6.03 µM) | 1.56 µg/mL (≈ 3.01 µM) | 6.25 µg/mL (≈ 12.1 µM) | 3.12 µg/mL (≈ 6.03 µM) | 3.12 µg/mL (≈ 6.03 µM) | 9% | 3.12 µg/mL (≈ 6.03 µM) | 1.56 µg/mL (≈ 3.01 µM) | 1.56 µg/mL (≈ 3.01 µM) | inactive | 3.12 µg/mL (≈ 6.03 µM) | inactive | 3.12 µg/mL (≈ 6.03 µM) | 3.12 µg/mL (≈ 6.03 µM) | –
2 | O=C(Nc1cccc(Cl)c1)N[C@H]1CCN(CCC(Oc2ccc(Cl)cc2)c2ccccc2)C1 (stereo partly drawn) | inactive | 6.25 µg/mL (≈ 12.9 µM) | 3.12 µg/mL (≈ 6.45 µM) | 3.12 µg/mL (≈ 6.45 µM) | 6.25 µg/mL (≈ 12.9 µM) | 1.56 µg/mL (≈ 3.22 µM) | 6.25 µg/mL (≈ 12.9 µM) | 11% | 3.12 µg/mL (≈ 6.45 µM) | 3.12 µg/mL (≈ 6.45 µM) | 3.12 µg/mL (≈ 6.45 µM) | inactive | 6.25 µg/mL (≈ 12.9 µM) | inactive | 6.25 µg/mL (≈ 12.9 µM) | 1.56 µg/mL (≈ 3.22 µM) | –
3 | COc1cccc2c1C(=O)c1c(O)c3c(c(O)c1C2=O)C[C@@](O)(C(=O)CO)C[C@@H]3O[C@H]1C[C@H](N)[C@H](O)[C@H](C)O1 [DOXORUBICIN] | – | 0.78 µg/mL (≈ 1.44 µM) | – | – | – | – | – | – | 0.39 µg/mL (≈ 0.718 µM) | – | – | – | – | – | – | – | –
4 | CN[C@H](CC(C)C)C(=O)N[C@H]1C(=O)N[C@@H](CC(N)=O)C(=O)N[C@H]2C(=O)N[C@H]3C(=O)N[C@H](C(=O)N[C@H](C(=O)O)c4cc(O)cc(O)c4-c4cc3ccc4O)[C@H](O)c3ccc(c(Cl)c3)Oc3cc2cc(c3O[C@@H]2O[C@H](CO)[C@@H](O)[C@H](O)[C@H]2O[C@H]2C[C@](C)(N)[C@H](O)[C@H](C)O2)Oc2ccc(cc2Cl)[C@H]1O [VANCOMYCIN] | – | – | 0.78 µg/mL (≈ 0.538 µM) | 50 µg/mL (≈ 34.5 µM) | 0.39 µg/mL (≈ 0.269 µM) | 6.25 µg/mL (≈ 4.31 µM) | 0.78 µg/mL (≈ 0.538 µM) | – | – | 0.78 µg/mL (≈ 0.538 µM) | – | – | 0.78 µg/mL (≈ 0.538 µM) | – | – | 0.78 µg/mL (≈ 0.538 µM) | 0.1 µg/mL (≈ 0.069 µM)
5 | O=C(NCC1CCN(CCC(Oc2ccc(Cl)cc2)c2ccccc2)CC1)Nc1cccc(Cl)c1 (racemic) | inactive | 12.5 µg/mL (≈ 24.4 µM) | 3.12 µg/mL (≈ 6.1 µM) | 0.39 µg/mL (≈ 0.761 µM) | 6.25 µg/mL (≈ 12.2 µM) | 3.12 µg/mL (≈ 6.1 µM) | 6.25 µg/mL (≈ 12.2 µM) | 6% | 3.12 µg/mL (≈ 6.1 µM) | 3.12 µg/mL (≈ 6.1 µM) | 3.12 µg/mL (≈ 6.1 µM) | inactive | 6.25 µg/mL (≈ 12.2 µM) | inactive | 6.25 µg/mL (≈ 12.2 µM) | 3.12 µg/mL (≈ 6.1 µM) | –
6 | O=C(Nc1cccc(Cl)c1)N[C@H]1CCN(CCC(Oc2cccc(Cl)c2)c2ccccc2)C1 (stereo partly drawn) | inactive | 6.25 µg/mL (≈ 12.9 µM) | 3.12 µg/mL (≈ 6.45 µM) | 0.78 µg/mL (≈ 1.61 µM) | 6.25 µg/mL (≈ 12.9 µM) | 3.12 µg/mL (≈ 6.45 µM) | 3.12 µg/mL (≈ 6.45 µM) | 8% | 3.12 µg/mL (≈ 6.45 µM) | 3.12 µg/mL (≈ 6.45 µM) | 3.12 µg/mL (≈ 6.45 µM) | inactive | 3.12 µg/mL (≈ 6.45 µM) | inactive | 3.12 µg/mL (≈ 6.45 µM) | 3.12 µg/mL (≈ 6.45 µM) | –
7 | O=C(NCC1CCN(CCC(Oc2cccc(Cl)c2)c2ccccc2)CC1)Nc1cccc(Cl)c1 (racemic) | inactive | 6.25 µg/mL (≈ 12.2 µM) | 3.12 µg/mL (≈ 6.1 µM) | 1.56 µg/mL (≈ 3.04 µM) | 6.25 µg/mL (≈ 12.2 µM) | 3.12 µg/mL (≈ 6.1 µM) | 6.25 µg/mL (≈ 12.2 µM) | 6% | 3.12 µg/mL (≈ 6.1 µM) | 3.12 µg/mL (≈ 6.1 µM) | 3.12 µg/mL (≈ 6.1 µM) | inactive | 6.25 µg/mL (≈ 12.2 µM) | inactive | 6.25 µg/mL (≈ 12.2 µM) | 1.56 µg/mL (≈ 3.04 µM) | –
8 | O=C(Nc1cccc(Cl)c1)NC1CCN(CCC(Oc2ccc(F)cc2)c2ccccc2)CC1 (racemic) | inactive | – | 6.25 µg/mL (≈ 13 µM) | 1.56 µg/mL (≈ 3.24 µM) | 12.5 µg/mL (≈ 25.9 µM) | 6.25 µg/mL (≈ 13 µM) | 6.25 µg/mL (≈ 13 µM) | – | – | 3.12 µg/mL (≈ 6.48 µM) | 3.12 µg/mL (≈ 6.48 µM) | inactive | 6.25 µg/mL (≈ 13 µM) | inactive | 6.25 µg/mL (≈ 13 µM) | 6.25 µg/mL (≈ 13 µM) | –
9 | O=C(Nc1cccc(Cl)c1)N[C@H]1CCN(CCC(Oc2ccc(C(F)(F)F)cc2)c2ccccc2)C1 (stereo partly drawn) | inactive | 6.25 µg/mL (≈ 12.1 µM) | 3.12 µg/mL (≈ 6.03 µM) | 0.78 µg/mL (≈ 1.51 µM) | 6.25 µg/mL (≈ 12.1 µM) | 1.56 µg/mL (≈ 3.01 µM) | 3.12 µg/mL (≈ 6.03 µM) | 10% | 3.12 µg/mL (≈ 6.03 µM) | 3.12 µg/mL (≈ 6.03 µM) | 1.56 µg/mL (≈ 3.01 µM) | inactive | 3.12 µg/mL (≈ 6.03 µM) | inactive | 1.56 µg/mL (≈ 3.01 µM) | 1.56 µg/mL (≈ 3.01 µM) | –
10 | O=C(NCC1CCN(CCC(Oc2ccc(C(F)(F)F)cc2)c2ccccc2)CC1)Nc1cccc(Cl)c1 (racemic) | inactive | 3.12 µg/mL (≈ 5.72 µM) | 3.12 µg/mL (≈ 5.72 µM) | 0.78 µg/mL (≈ 1.43 µM) | 12.5 µg/mL (≈ 22.9 µM) | 6.25 µg/mL (≈ 11.4 µM) | 3.12 µg/mL (≈ 5.72 µM) | 5% | 3.12 µg/mL (≈ 5.72 µM) | 1.56 µg/mL (≈ 2.86 µM) | 1.56 µg/mL (≈ 2.86 µM) | inactive | 3.12 µg/mL (≈ 5.72 µM) | inactive | 3.12 µg/mL (≈ 5.72 µM) | 1.56 µg/mL (≈ 2.86 µM) | –
11 | O=C(Nc1cccc(Cl)c1)NC1CCN(CCC(Oc2ccc(Cl)cc2)c2ccccc2)CC1 (racemic) | inactive | 12.5 µg/mL (≈ 25.1 µM) | 3.12 µg/mL (≈ 6.27 µM) | 1.56 µg/mL (≈ 3.13 µM) | 6.25 µg/mL (≈ 12.5 µM) | 3.12 µg/mL (≈ 6.27 µM) | 3.12 µg/mL (≈ 6.27 µM) | < 1% | 6.25 µg/mL (≈ 12.5 µM) | 1.56 µg/mL (≈ 3.13 µM) | 1.56 µg/mL (≈ 3.13 µM) | inactive | 3.12 µg/mL (≈ 6.27 µM) | inactive | 3.12 µg/mL (≈ 6.27 µM) | 3.12 µg/mL (≈ 6.27 µM) | –
12 | O=C(Nc1cccc(F)c1)NC1CCN(CCC(Oc2ccc(C(F)(F)F)cc2)c2ccccc2)CC1 (stereo not drawn) | inactive | – | 3.12 µg/mL (≈ 6.06 µM) | 0.78 µg/mL (≈ 1.51 µM) | 6.25 µg/mL (≈ 12.1 µM) | 6.25 µg/mL (≈ 12.1 µM) | 6.25 µg/mL (≈ 12.1 µM) | – | – | 3.12 µg/mL (≈ 6.06 µM) | 1.56 µg/mL (≈ 3.03 µM) | inactive | 3.12 µg/mL (≈ 6.06 µM) | inactive | 3.12 µg/mL (≈ 6.06 µM) | 3.12 µg/mL (≈ 6.06 µM) | –
13 | O=C(Nc1cccc(Cl)c1)NC1CCN(CCC(Oc2cccc(F)c2)c2ccccc2)CC1 (racemic) | inactive | – | 6.25 µg/mL (≈ 13 µM) | 1.56 µg/mL (≈ 3.24 µM) | 12.5 µg/mL (≈ 25.9 µM) | 6.25 µg/mL (≈ 13 µM) | 6.25 µg/mL (≈ 13 µM) | – | – | 3.12 µg/mL (≈ 6.48 µM) | 3.12 µg/mL (≈ 6.48 µM) | inactive | 6.25 µg/mL (≈ 13 µM) | inactive | 6.25 µg/mL (≈ 13 µM) | 6.25 µg/mL (≈ 13 µM) | –
